Measurements reported in US20090170900A1, “DOSING REGIMEN FOR WEIGHT LOSS” (UTI LIMITED PARTNERSHIP, priority 2005, published 2009).
Like-named read-outs stand apart in the source and are kept apart here.

Tests used:
CB1 = CB1 (Homo sapiens, UniProt P21554); details: cited from earlier work
[1] = Weight gain or loss after a single dose of 1.25 or 2.5 mg/kg (Example 2); type: in vivo, rat; details: for weight gain or loss: over 10 days
Protocol: (§1) Food intake and weight measurements were taken daily. […] Animals were assigned into vehicle, 1.25 or 2.5 mg/kg conditions via a counterbalance design.

[2] = Food intake after a single intraperitoneal injection in prefed, moderately obese male Lewis rats (Example 1); details: for cumulative food intake: AM-251 5 mg/kg i.p., Ensure Plus
Protocol: Vanilla-flavoured Ensure Plus (Ross Laboratories, Saint-Laurent, Quebec, Canada) was used as food on account of its palatability, and to reduce the risk of spillage. […] Food and water were presented in inverted glass bottles that attached to the outside of the cage. Animals were habituated to handling and testing procedures 3 weeks prior to testing on liquid diet.
The initial food presented between 1600 and 1700 h (prefeed) was designed to produce partial satiety as previously described in C.
Food bottles were put back on at 1800 h. Food intake measurements were taken daily as well as at 1900, 2000, and 2100 h.

[3] = Daily food intake after a single dose of 1.25 or 2.5 mg/kg (Example 2); type: in vivo, rat
Protocol: as §1

[4] = Body weight gain with daily or twice-weekly intragastric injection (Example 4); type: in vivo, rat; details: low doses by the intragastric route, 28 days
Source text: (§2) Each of the rats was assigned to one of five groups. […] These groups were compared to the group with daily injection of vehicle (n=8).

[5] = Body weight change with administration every 5 days (Example 3); details: 5 mg/kg every 5 days, p<0.05
Protocol: (§3) Food was available for 17 h each day starting at 16:00 h. Food and water were presented in inverted glass bottles that were attached to the outside of the cage in order to minimize spillage. […] Food intake and body weight measurements were recorded daily.

[6] = cited from earlier work
[7] = Daily food intake with administration every 5 days (Example 3); details: 5 mg/kg every 5 days
Protocol: as §3

[8] = 5 and 20 mg doses; human trials; cited from earlier work
[9] = mice; cited from earlier work
[10] = animal model of temporal lobe epilepsy; cited from earlier work
[11] = Two-flavored conditioned aversion test (Example 4); type: in vivo, rat; details: for short-term percentage preference for the primary flavor associated with drug delivery: 15 min; for percentage daily preference for the flavor associated with drug delivery: 17 hr
Source text: Another objective was to determine whether the animals were responding negatively to the drug as determined by the use of a two-flavored conditioned aversion test in which the drug was repeatedly paired with one flavor of liquid diet while the vehicle injection was paired with the other flavor. There were ten training trials before the test procedure was done so the rats had sufficient time to make associations between flavors and internal consequences. This test procedure involved giving the rats two bottles, containing the liquid diets flavored with chocolate and strawberry, and determining the individual rat's preference for one or the other of the flavors. A conditioned aversion was established if the rat chose against the flavor associated with the drug injections.
as §2
This conditioning procedure was done for 10 exposures before the actual conditioned aversion test was done on day 33. This aversion test was done by allowing each rat exposure for 17 hrs to two bottles, one containing chocolate-flavored and the other containing strawberry-flavored liquid diet. No drugs or vehicles were injected on this day. […] Moreover, the rats were forced to taste both flavors for three or four licks before the diets were made freely available to them so the rats were fully aware that two flavors were present. […] The 17-hour tests allowed repeated association between the internal consequences of the drug and the taste of the drug associated primary flavor.

[12] = cited from earlier work; remark: listed apart in the source
[13] = determined from behavioral tests; cited from earlier work
[14] = rats injected daily (intragastric)

CB1, sequence (P21554 whole entry, species assumed): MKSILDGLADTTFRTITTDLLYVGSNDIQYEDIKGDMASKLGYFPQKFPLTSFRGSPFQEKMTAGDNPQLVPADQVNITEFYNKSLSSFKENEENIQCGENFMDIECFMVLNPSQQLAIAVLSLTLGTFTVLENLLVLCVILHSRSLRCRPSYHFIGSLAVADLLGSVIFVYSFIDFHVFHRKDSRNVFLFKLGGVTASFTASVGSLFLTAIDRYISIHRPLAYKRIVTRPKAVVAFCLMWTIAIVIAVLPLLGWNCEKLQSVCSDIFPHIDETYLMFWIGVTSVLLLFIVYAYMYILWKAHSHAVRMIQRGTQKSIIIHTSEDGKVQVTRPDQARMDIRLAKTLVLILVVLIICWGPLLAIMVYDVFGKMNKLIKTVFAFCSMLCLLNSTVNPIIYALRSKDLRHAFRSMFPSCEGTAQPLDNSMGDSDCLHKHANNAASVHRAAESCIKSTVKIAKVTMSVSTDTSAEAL

Cc1c(C(=O)NN2CCOCC2)nn(-c2ccc(Cl)cc2Cl)c1-c1ccc(I)cc1 [AM 281, N-(Morpholin-1-yl)-1-(2,4-dichlorophenyl)-5-(4-iodophenyl)-4-methyl-1H-pyrazole-3-carboxamide]
CB1 antagonist activity and selectivity (CB1): potent, CB1 selective antagonists

Cc1c(C(=O)NN2CCCCC2)nn(-c2ccc(Cl)cc2Cl)c1-c1ccc(I)cc1 [AM-251, N-(piperidin-1-yl)-5-(4-iodophenyl)-1-(2,4-dichlorophenyl)-4-methyl-1H-pyrazole-3-carboxamide]
weight gain or loss ([1]; 1.25 mg/kg single dose): 2.5 ± 2.0 g | weight gain or loss ([1]; 2.5 mg/kg single dose): -5.1 ± 2.1 g | duration of weight loss compared with duration of reduced food intake ([1]; lowest dose, 1.25 mg/kg): the duration of weight loss exceeded the duration of reduced food intake | daily food intake ([2]; 5 mg/kg i.p., day of injection): 36.7 ± 3.3 g | daily food intake ([2]; 5 mg/kg i.p., last day of significant reduction (day before the next drugs were given)): 47.0 ± 2.5 g | duration of significant reduction in daily food intake ([2]; 5 mg/kg i.p., starting on the day of injection): 6 days | cumulative food intake ([2]; 1 h of testing): no intake | cumulative food intake ([2]; 2 h of testing): 1.3 ± 0.8 g | cumulative food intake ([2]; 3 h of testing): 3.3 ± 1.4 g | reductions in food intake, dose relation ([3]; 1.25 mg/kg or 2.5 mg/kg single dose): dose dependent | duration of significant reductions in food intake after the day of administration ([3]; 2.5 mg/kg single dose, significant starting the day of administration, p<0.001): 4 days | effect on body weight gain [4]: significant slowing in weight gain | period of significant differences in weight change vs vehicle ([5]; Newman-Keuls multiple comparison test): day 1 to day 24 | period of significant reductions in weight gain ([5]; unpaired t-test, last administration on day 11): day 1 until day 27 | time of repeated daily administration after which changes in food intake were non-significant ([6]; 3 mg/kg daily, mouse): 8 days | effect of stopping daily doses ([6]; approximately 10 mg/kg daily): significant rebound hyperphagia and a rapid return in body weight | days on which food intake was significantly reduced [7]: days 1-4, and days 6-15 | time that reductions in food intake continued after the last treatment [7]: five | duration of significant reductions in food intake after the first dose ([7]; vs vehicle, p<0.05): 4 days

CN=C(NS(=O)(=O)c1ccc(Cl)cc1)N1C[C@H](c2ccccc2)C(c2ccc(Cl)cc2)=N1 [SLV-319]
CB1 antagonist activity and selectivity (CB1): potent, CB1 selective antagonists

Cc1c(C(=O)NN2CCCCC2)nn(-c2ccc(Cl)cc2Cl)c1-c1ccc(Cl)cc1 [rimonabant, N-(piperidin-1-yl)-5-(4-chlorophenyl)-1-(2,4-dichlorophenyl)-4-methyl-1H-pyrazole-3-carboxamide]
most common side effects [8]: nausea, dizziness, arthralgia and diarrhea | damage in response to an inflammatory stimulus vs vehicle-treated controls [9]: significantly more damage | effect on body weight gain [4]: significant slowing in weight gain | frequency of protracted seizures [10]: significantly higher frequency of protracted seizures | short-term percentage preference for the primary flavor associated with drug delivery [11, 14]: 48% | short-term percentage preference for the primary flavor associated with drug delivery ([11]; rats injected twice-weekly (intragastric)): 44% | percentage daily preference for the flavor associated with drug delivery ([11]; rats injected biweekly (intragastric)): 50% | percentage daily preference for the flavor associated with drug delivery [11, 14]: 67% | effect of stopping daily doses ([12]; approximately 10 mg/kg daily): significant rebound hyperphagia and a rapid return in body weight | time of treatment after which the anorectic effect waned ([12]; continued treatment, rats): 5 days | predicted half-life [13]: 22 h
